Test results from PMC8760490, “Discovery of novel furanylbenzamide inhibitors that target oncogenic tyrosine phosphatase SHP2 in leukemia cells” (The Journal of Biological Chemistry, 2021).
“Also recorded” adds a separate entry of the source.

Legend:
SHP2cat [1] = target: T1, SHP2cat (Homo sapiens, UniProt Q06124); assay: OMFP fluorescence phosphatase inhibition assay, SHP2cat; type: biochemical; conditions: substrate OMFP at Km (50 μM); read-out: IC50 against SHP2cat with OMFP
T1 construct: the SHP2 catalytic domain (SHP2cat; residues 248–527); made in house
T1 sequence (Q06124 248-527): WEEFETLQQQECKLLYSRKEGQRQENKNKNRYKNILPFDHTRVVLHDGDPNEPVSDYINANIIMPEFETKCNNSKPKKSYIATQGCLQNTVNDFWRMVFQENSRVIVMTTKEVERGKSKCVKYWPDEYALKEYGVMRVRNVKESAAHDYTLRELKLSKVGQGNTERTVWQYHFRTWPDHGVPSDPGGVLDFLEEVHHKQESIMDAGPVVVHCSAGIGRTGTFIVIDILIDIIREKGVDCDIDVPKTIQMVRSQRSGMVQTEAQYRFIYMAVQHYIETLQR
Description: We confirmed specific and dose-dependent binding of inhibitors to SHP2 by PTS, which monitors the thermal stability of a target protein in vitro ([40]). […] In addition, we confirmed the inhibitory activity of several furanylbenzamide inhibitors, including the top two compounds SBI-2130 and SBI-4668, in SHP2cat inhibition assays using the alternative substrate 3-O-methylfluorescein phosphate (OMFP), which features a peak fluorescence emission that is red-shifted by ∼75 nm compared with DiFMUP. The Km value of OMFP for SHP2cat was determined to be 50 μM. An OMFP fluorescence intensity–based assay was used to perform inhibitor dose–response experiments and determine IC50 values.
SHP2 inhibitors were tested at RT in a 384-well plate format standard phosphatase fluorescence intensity assay using DiFMUP (Invitrogen/Thermo Fisher Scientific) as a substrate and a total reaction volume of 25 μl. […] Fluorescence intensity was measured in kinetic mode (every minute for 7 or 10 min) using a Tecan Spark Multimode Microplate Reader (Tecan) with an excitation wavelength of 360 nm and an emission wavelength of 460 nm. The initial rates were determined from the linear progression curves of the PTP reaction. […] IC50 values were calculated from the corrected initial rates by nonlinear regression using the program GraphPad Prism, version 8 (GraphPad Software, Inc) software. […]

SHP2-E76K = target: T2, SHP2-E76K (Homo sapiens, UniProt Q06124, E76K); assay: Time-dependent inhibition (preincubation 1-60 min); type: biochemical; conditions: preincubation 1, 5, 10, 20 or 60 min with SHP2-E76K
T2 construct: Recombinant human full-length SHP2 (1–594) WT and E76K mutants; made in house
T2 sequence (Q06124 1-593 E76K): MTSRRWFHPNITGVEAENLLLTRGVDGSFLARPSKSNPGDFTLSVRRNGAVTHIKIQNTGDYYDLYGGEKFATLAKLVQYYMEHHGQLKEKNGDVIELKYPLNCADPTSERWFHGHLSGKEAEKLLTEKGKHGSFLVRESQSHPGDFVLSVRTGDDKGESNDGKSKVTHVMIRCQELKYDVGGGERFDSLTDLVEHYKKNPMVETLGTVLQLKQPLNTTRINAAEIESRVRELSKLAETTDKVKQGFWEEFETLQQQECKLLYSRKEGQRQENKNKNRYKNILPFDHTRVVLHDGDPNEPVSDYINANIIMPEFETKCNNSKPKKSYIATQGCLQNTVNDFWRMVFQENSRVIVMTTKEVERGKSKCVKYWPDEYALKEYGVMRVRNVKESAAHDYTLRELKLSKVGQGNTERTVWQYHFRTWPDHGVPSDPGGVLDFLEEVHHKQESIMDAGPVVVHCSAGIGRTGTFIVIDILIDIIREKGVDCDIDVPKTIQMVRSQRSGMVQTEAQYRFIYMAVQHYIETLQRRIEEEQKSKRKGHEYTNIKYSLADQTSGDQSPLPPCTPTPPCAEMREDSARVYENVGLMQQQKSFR
Protocol: (§1) PTPs contain a highly nucleophilic cysteine that is essential for catalytic activity but is susceptible to oxidation and covalent modifications, which abrogate its nucleophilic function and phosphatase activity ([26]). Because the methylenebenzothiophenone moiety of our inhibitors could potentially act as a Michael acceptor and thus covalently bind to the catalytic cysteine, we tested whether the observed inhibition of SHP2 was dependent on the preincubation time of inhibitor and enzyme. An irreversible covalent inhibitor may show time-dependent inhibition, with increased potency at longer incubation times. Conversely, the potency of a noncovalent inhibitor is expected to be insensitive to the time it is incubated with the enzyme. To test for time-dependent inhibition, SBI-2130 at ten different concentrations was preincubated with SHP2-E76K for 1, 5, 10, 20, or 60 min, before the DiFMUP substrate was added to the reaction mixture and initial rates were recorded (Fig. 3C). […] In addition, we used mass spectrometry to test whether inhibitor:protein adducts are being formed. Specifically, we incubated SHP2cat (5 μM) with SBI-4668 (100 μM) in assay buffer for various times (1, 5, 20, and 60 min) before trypsin proteolysis and subsequent mass spectrometry analysis. […] Finally, we performed a jump-dilution experiment to test for irreversible inhibition of SHP2. […]

SHP2cat [2] = target: T1, SHP2cat; assay: Mass spectrometry test for inhibitor:protein adducts; conditions: SHP2cat 5 μM, inhibitor 100 μM, 1-60 min
Protocol: as §1

| SMILES | IC50 (SHP2cat [1]) [nM] | time-dependent inhibition (SHP2-E76K) | inhibitor:protein adduct formation (mass spectrometry) (SHP2cat [2]) |
| --- | --- | --- | --- |
| Nc1ccc(NC(=O)c2cc(-c3ccc(/C=C4\Sc5ccccc5C4=O)o3)ccc2O)cc1 [SBI-2130, (Z)-N-(4-Aminophenyl)-2-hydroxy-5-(5-((3-oxobenzo[b]thiophen-2(3H)-ylidene)methyl)furan-2-yl)benzamide] | 440 | No time-dependent inhibition; also recorded: not time dependent | – |
| O=C(Nc1ccccc1)c1cc(-c2ccc(/C=C3\Sc4ccccc4C3=O)o2)ccc1O [SBI-4668, (Z)-2-Hydroxy-5-(5-((3-oxobenzo[b]thiophen-2(3H)-ylidene)methyl)furan-2-yl)-N-phenylbenzamide] | 1200 | – | no adduct formation |
